pEC50: −log10 of the molar value. Entries after “also recorded” stand apart in the source; their conditions may differ.
Experiments:
isolated rat aorta [1] = assay: In vitro induction of tolerance and cross-tolerance: vasorelaxation of pre-exposed rat aortic rings; assay type: cell-based; details: for EC50 / pEC50: Rattus norvegicus; for EC50: given as negative log value, read-out: EC50 (converted); for tolerance induction in vitro: rings pre-treated with epinephrine and then with the same compound (0.44 mM)
Experimental: Aortic rings were prepared as described hereinabove, and were exposed to 0.44 mM GTN (vehicle was water:ethanol:propyleneglycol at proportional ratio of 1:1:1) for 1 hour before CCRC construction, to thereby induce tolerance to nitroglycerine. At the end of the tolerance induction period, rings were thrice washed with the path buffer (Krebs-bicrbonate) every 15 minutes for the following hour and then CCRC for vasorelaxation on GTN-induced tolerance rings were constructed for GTN (pretreated versus untreated rings, FIG. 15), in order to verify the ability to induce and measure GTN tolerance induction in vitro
Attempted induction of tolerance to the NO-donating compounds of the present invention was performed under the same conditions as for GTN. Thus, in an exemplary experiment, rings were exposed to 0.44 mM solution of Pet-3 in the attempt to induce tolerance for Pet-3. CCRC were then measured for the vasorelaxing effect of Pet-3 on a group of rings which were pre-exposed to Pet-3 as to induce tolerance to Pet-3, and for an untreated control group. The above protocol was repeated with Pet-2, Pet-7, Pet-8, Pet-12, Pet-24, Pet-43, Pet-149 and Pet-152.
Cross-tolerance studies were conducted using the same technique described above for measuring vasorelaxation of aortic rings from rats. Two groups of aortic rings samples were pre-treated with GTN, then one group was measured for vasorelaxation by GTN and the second group for vasorelaxation by Pet-12, an exemplary NO-donor according to the present invention. For the opposite cross-tolerance studies, two groups of aortic rings samples were pre-treated with Pet-12, then one group was measured for vasorelaxation by GTN and the second group for vasorelaxation by Pet-12.

Male Sprague Dawley rats = assay: Induction of in vivo nitrate tolerance: cGMP in aorta of rats infused with the compound; parameters: species or system rat; details: for level of cGMP following a repeated treatment in vivo: aorta of rats pre-treated in vivo, re-exposed to 1 μM; for in vivo tolerance induction: cGMP in aorta of rats pre-treated in vivo with the compound, 200 μg/hour for 16 hours
Experimental: For c-GMP levels and tolerance development, the rat's thoracic aorta was isolated after exposure to the tested compound in vivo, and measured as described above in the in vitro assays.
Male Sprague Dawley rats (220 to 250 grams) were housed under constant temperature and humidity conditions. Light was maintained at a 12/12 light dark cycle. Except for 12 hours before the experiment, when food fasting was initiated, all rats had free access to standard rat pellet diet and tap water. The animals were anesthetized by intraperitoneal injection of ketamine and xylazine combination (50 and 10 milligram per kilogram, respectively). […] The catheters were filled with normal saline solution containing 1000 IU/ml of heparin and plugged with a metal pin. Catheters were externalized to the back of the neck region and secured by a polyester felt disk.
After implantation, the rats were individually housed until they regained their preoperative weight and appeared healthy (3 to 4 days post-operation). At this time point (day 0), an osmotic mini-pump (Alza Corp., Palo Alto, Calif.) delivering constant volume (10 μl/hour) of vehicle or drug was connected to one of the intravenous catheters.
For inducing tolerance to the tested NO-donor according to the present invention, the animals received 200 μg/hour of the tested compound for 16 hours (short-term-induced tolerance). A similar number of animals were processed by the same surgical procedure and received the vehicle alone (10 μl/hour of a solution consisting of 30% ethanol and 30% propylene glycol in sterile distilled water for injection).
At the end of the infusion periods used for the development of tolerance (16 hour), the rats were anesthetized as described above, the two catheters were externalized and the delivering catheters were disconnected from the mini-pump. The abdomen was opened by midline incision and the thoracic aorta were isolated, washed and cleaned from the surrounding tissues. Strips of the treated aortas were pooled in chambers containing Krebs-Hanseliet buffer (10 ml), and exposed to 1 μM of the tested NO-donor (final concentration) for 120 seconds. The tissues were quickly collected and frozen in liquid nitrogen for cGMP measurement, described hereinabove.

[2] = test system: c-GMP in slices of thoracic aorta of rats; assay: Cyclic-GMP measurement in aortic rat tissue (radioimmunoassay); assay type: cell-based; details: rat aorta; for cGMP Post-infusion: post-infusion (repeated treatment)
Experimental: GTN (10^−6 M) was added to the chamber and, 1 minute after exposure to the drug, rings (usually 3–5) were taken, wrapped with aluminum foil and immediately frozen in liquid nitrogen for storage. Control sample group was treated with the vehicle solution only. At the time of analysis, rings were thawed, blotted over a dry gauzed and weighted. A known weight of tissue was homogenized in 2 ml ice-cold modified Hank's balanced salt solution containing (in gram/liter) NaCl 8; KCl 0.4; glucose 1; KH2PO4 0.06; Na2HPO4 0.047; Phenol red 0.017 and further containing 25 mM EDTA (disodium salt). The homogenate was centrifuged at 4000 g (force units) for 10 minutes at 2–4° C. and the supernatant was thereafter transferred into fresh pre-cooled test tube containing 1 ml of acetonitrile. The tubes were vortex mixed for a few seconds and subsequently centrifuged at 4000 g for 5 minutes at 2–4° C., to remove the precipitated protein. Each supernatant was transferred into a clean test tube and evaporated to dryness under a stream of nitrogen at 55° C. The dry residue was reconstituted with 10 volumes of Tris-EDTA buffer pH 7.5 (0.05 M Tris containing 4 mM EDTA). Aliquots of 100 μl of the reconstituted solution in duplicate were used for c-GMP measurements using Amersham RIA kit, as is described in Haj-Yehia & Benet [Pharmacology, 1995, 273, 1, pp. 94–100]. Standard curves were plotted with six concentrations (0, 0.5, 1, 2, 4 and 8 pmoles of c-GMP per tube).
The NO-tolerance effect of GTN and NO-donor compounds according to the present invention was measured by following the production of c-GMP in slices of thoracic aorta of rats. Thus, the production of c-GMP was measured as described in the methods section above for the reference NO-donor compound GTN, and for the NO-donors of the present invention Pet-2, Pet-3, Pet-7, Pet-8, Pet-10, Pet-12, Pet-24, Pet-59, Pet-147, Pet-149, Pet-152, Pet-154 and Pet-155.

isolated rat aorta [3] = assay: In vitro vasorelaxation of epinephrine-contracted rat aortic rings (CCRC); assay type: cell-based; details: for EC50: given as negative log value, read-out: EC50 (converted)
Text: Male Sprague Dawley rats were anaesthetized using intraperitoneal injection of ketamine and xylazine (50 and 10 milligram per kilogram, respectively) and the thoracic aorta, the large upper portion of the descending aorta, starting at the caudal border of the chest bone, was removed thereafter, while carefully removing the paraadventetial tissue surrounding the vessel. Aortae were cut into rings of 4–5 millimeters and mounted onto the tissue path. The path buffer (Krebs-bicrbonate) was constantly gassed with carbogen and maintained at 37° C. The rings were preloaded under 2 g tension and equilibrated for 90 minutes, while refreshing the buffer every 15 minutes. After stabilization, the rings were contracted with epinephrine (1 μM). Cumulative Concentration-Response Curves (CCRC) were measured for the vasorelaxing effect induced by adding various concentrations, ranging from 10^−10 M to 10^−5 M of Pet-2, Pet-3, Pet-7, Pet-8, Pet-12, Pet-24, Pet-43, Pet-59, Pet-147, Pet-152 and Pet-154, and glyceryltrinitrate (GTN), according to the procedure described in Feelich et al., Molecular Pharmacology, 56:243–253 (1999). The vehicle, which was used for this experiment was water:ethanol:propyleneglycol at proportional ratio of 1:1:1.
The vasorelaxing effect of the thiazole-derived NO-donors according to the present invention was measured on slices of thoracic aorta of rats contracted with epinephrine, as described hereinabove.

[4] = test system: anesthetized hypertensive Sprague-Dawley male rats; assay: Hypotensive effects: mean arterial pressure after iv bolus in phenylephrine-treated rats; assay type: in vivo; details: rat
Experimental: Mean arterial pressure (MAP) was monitored and determined during bolus infusion of Pet-2, Pet-3, Pet-7, Pet-8, Pet-12 and Pet-13. Briefly, polyethylene catheters (PE50) were inserted into the carotid artery and into the jugular vein of anesthetized hypertensive Sprague-Dawley male rats (200–300 grams). A blood pressure recorder was placed within the carotid artery. Phenylephrine (0.1 mg) was then injected and the mean arterial blood pressure (MABP) was monitored continuously until a stable baseline was reached. The hypotensive effects of intravenous (iv) bolus doses (0.1 mg of each tested compound) administered intravenously at the jugular vein in minimal volume of vehicle (0.2 ml per dose) were evaluated. Five minutes were allowed between each dose, during which the maximal decrease in MAP was recorded and a dose-response graph comparing the hypotensive effect of the compounds was constructed.

[5] = vasorelaxation of rings pre-exposed to 0.44 mM of the same compound for 1 hour
[6] = vasorelaxation of rings pre-exposed to 0.44 mM of the same compound for 1 hour, read-out: Concentration
[7] = vasorelaxation, rat aortic rings contracted with 1 μM epinephrine, 10^−10 M to 10^−5 M, read-out: Concentration
[8] = vasorelaxation, rat aortic rings contracted with 1 μM epinephrine

| Structure (SMILES) | EC50 (isolated rat aorta [1]; [5]) [nM] | pEC50 (isolated rat aorta [1]; [6]) | tolerance induction in vitro (isolated rat aorta [1]) | level of cGMP following a repeated treatment in vivo (Male Sprague Dawley rats) | in vivo tolerance induction (Male Sprague Dawley rats) | c-GMP level following a repeated treatment [2] | cGMP Post-infusion [2] [pmol/g tissue] | cGMP Pre-infusion [2] [pmol/g tissue] | pEC50 (isolated rat aorta [3]; [7]) | EC50 (isolated rat aorta [3]; [8]) [nM] | hypotensive effect on MAP following successive administrations [4] | pEC50 (isolated rat aorta [1]; 1 h) | pEC50 (isolated rat aorta [1]; 1 h, read-out: Concentration) | pEC50 (isolated rat aorta [3]; Rattus norvegicus) | pEC50 (isolated rat aorta [3]; Rattus norvegicus, read-out: Concentration) | vasorelaxation effect as compared with glyceryltrinitrate (isolated rat aorta [3]; isolated rat aorta, 1 μM epinephrine) | vasorelaxation in rings pre-treated with GTN (cross-tolerance, words) (isolated rat aorta [1]; rings made tolerant to GTN) | tolerance after pre-treatment with Pet-12, to itself and to GTN (isolated rat aorta [1]; rings pre-treated with Pet-12) |
| --- | --- | --- | --- | --- | --- | --- | --- | --- | --- | --- | --- | --- | --- | --- | --- | --- | --- | --- |
| O=[N+]([O-])OCC(CO[N+](=O)[O-])O[N+](=O)[O-] [GTN, glyceryl trinitrate, reference compound] | 31.6 | 7.35 | tolerance induced | decreased | tolerance inducing effect | significantly reduced | 45 ± 12 | 127 ± 11 | 7.35 | 28.2 | attenuation | – | – | – | – | – | – | – |
| CCc1nc(C)c(CCO[N+](=O)[O-])s1 [Pet-2, 2-Ethyl-4-methyl-5-(2-nitrooxy-ethyl)-thiazole] | – | – | – | remained substantially unchanged | absence of tolerance induction; also recorded: absence of tolerance effect | – | 140 ± 13 | 143 ± 13 | – | – | – | 7.40 | 7.40 | 7.60 | 7.60 | superior | – | – |
| Cc1nc(-c2cccnc2)sc1CCO[N+](=O)[O-] [Pet-12, 3-[4-Methyl-5-(2-nitrooxy-ethyl)-thiazole-2-yl]-pyridine] | 63.1 | 7.20 | absence of tolerance induction | – | absence of tolerance induction; also recorded: absence of tolerance effect; also recorded: lack of tolerance induction | – | 112 ± 12 | 127 ± 11 | 7.40 | 39.8 | – | – | – | – | – | – | absence of tolerance induction effect; also recorded: no effect | absence of tolerance induction effect; also recorded: does not evoke tolerance |
